pKi: −log10 of the molar value. Where a name gives a salt, the structure may show the parent alone.

The target in the assay is T1, human V1a receptor (Homo sapiens, UniProt P37288).
T1 construct: expressed in transfected cells; host or cells: HEK293 cells, transiently transfected; cell membranes
T1 sequence (P37288 whole entry): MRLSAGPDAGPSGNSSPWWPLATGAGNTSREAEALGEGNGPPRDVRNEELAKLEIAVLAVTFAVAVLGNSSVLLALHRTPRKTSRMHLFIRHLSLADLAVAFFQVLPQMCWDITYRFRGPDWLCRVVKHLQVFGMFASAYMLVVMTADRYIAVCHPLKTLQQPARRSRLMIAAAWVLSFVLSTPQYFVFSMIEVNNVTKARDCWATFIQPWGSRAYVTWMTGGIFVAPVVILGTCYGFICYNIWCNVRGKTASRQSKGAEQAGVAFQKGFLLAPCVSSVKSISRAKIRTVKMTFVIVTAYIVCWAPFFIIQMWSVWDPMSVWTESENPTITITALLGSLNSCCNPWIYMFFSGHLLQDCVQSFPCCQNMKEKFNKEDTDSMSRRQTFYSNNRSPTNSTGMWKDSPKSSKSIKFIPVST
In words: human V1a receptor binding (3H-Vasopressin SPA, HEK293 membranes). The following applies: displacement of 4 nM 3H-Vasopressin, membranes of HEK293 cells transiently transfected with human V1a receptor; Ki from IC50 by Cheng-Prussoff. The procedure, abridged: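 Transiently transfected HEK293 membranes on yttrium silicate SPA beads in Tris binding buffer (120 mM NaCl, 5 mM KCl, 2 mM CaCl2, 10 mM MgCl2). 3H-vasopressin added as 4 nM working solution; excess cold vasopressin set non-specific binding. 1 h at room temperature, then counting; Ki from fitted IC50 via Cheng-Prusoff.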
Regarding `O=C1OC2(CCN(C(=O)c3cn(CCC4CCOCC4)c4cc(Cl)ccc34)CC2)c2ccccc21` [Example 196, 1′-({6-Chloro-1-[2-(tetrahydro-2H-pyran-4-yl)ethyl]-1H-indol-3-yl}carbonyl)-3H-spiro[2-benzofuran-1,4′-piperidin]-3-one], the negative logarithm of the Ki (pKi) (usually the negative decadic logarithm of the Ki, by convention in mol/L) is 8.85. Turning to `O=C(c1c[nH]c2cc(Cl)ccc12)N1CCC2(CC1)OCc1ccccc12` [Example 69, 1′-[(6-chloro-1H-indol-3-yl)carbonyl]-3H-spiro[2-benzofuran-1,4′-piperidine]], the negative-log Ki (pKi) was 8.37.

Compound `Cn1cncc1Cn1cc(C(=O)N2CCC3(CC2)OCc2ccccc23)c2ccc(Cl)cc21` [Example 238] gave a pKi of 8.72. Compound `O=C(c1c2n(c3ccccc13)CCNC2)N1CCC2(CC1)OCc1ccccc12` [Example 275, 1′-(1,2,3,4-Tetrahydropyrazino[1,2-a]indol-10-ylcarbonyl)-3H-spiro[2-benzofuran-1,4′-piperidine]hydrochloride] gave a pKi of 7.80.

Compound `N#CCC1(Cn2cc(C(=O)N3CCC4(CC3)OC(=O)c3ccccc34)c3ccc(Cl)cc32)CC1` [Example 193, [1-({6-Chloro-3-[(3-oxo-1′H,3H-spiro[2-benzofuran-1,4′-piperidin]-1′-yl)carbonyl]-1H-indol-1-yl}methyl)cyclopropyl]acetonitrile] gave a negative-log Ki (pKi) of 8.68. As to `O=C(c1cn(CCO)c2cc(Cl)ccc12)N1CCC2(CC1)OCc1ccccc12` [Example 259, 2-[6-Chloro-3-(1′H,3H-spiro[2-benzofuran-1,4′-piperidin]-1′-ylcarbonyl)-1H-indol-1-yl]ethanol], the negative-log Ki (pKi) was 8.59. The figure for `NC(=O)Cn1cc(C(=O)N2CCC3(CC2)OC(=O)c2cc(F)ccc23)c2ccc(Cl)cc21` [Example 115, 2-{6-Chloro-3-[(5-fluoro-3-oxo-1′H,3H-spiro[2-benzofuran-1,4′-piperidin]-1′-yl)carbonyl]-1H-indol-1-yl}acetamide] is 7.98; for `O=C1OC2(CCN(C(=O)c3cn(-c4ccccn4)c4cc(Cl)ccc34)CC2)c2ccccc21` [Example 159, 1-[(6-Chloro-1-pyridin-2-yl-1H-indol-3-yl)carbonyl]-3H-spiro[2-benzofuran-1,4′-piperidin]-3-one] it is 8.12; for `O=C1OC2(CCN(C(=O)c3c[nH]c4cc(Cl)ccc34)CC2)c2ccc(F)cc21` [Example 19, 1′-[(6-chloro-1H-indol-3-yl)carbonyl]-5-fluoro-3H-spiro[2-benzofuran-1,4′-piperidin]-3-one] it is 8.17.

Turning to `CN1CCC[C@@H]1Cn1cc(C(=O)N2CCC3(CC2)OCc2ccccc23)c2ccc(Cl)cc21` [Example 269], the negative-log Ki (pKi) was 9.00.

Compound `CCN(CC)C(=O)c1[nH]c2cc(Cl)ccc2c1C(=O)N1CCC2(CC1)OC(=O)c1cc(F)ccc12` [Example 31, 6-chloro-N,N-diethyl-3-[(5-fluoro-3-oxo-1′H,3H-spiro[2-benzofuran-1,4′-piperidin]-1′-yl)carbonyl]-1H-indole-2-carboxamide] had a negative logarithm of the Ki (pKi) of 7.91. Compound `O=C1OC2(CCN(C(=O)c3cn(CC(=O)N4CCOCC4)c4cc(Cl)ccc34)CC2)c2ccc(F)cc21` [Example 113, 1′-{[6-Chloro-1-(2-morpholin-4-yl-2-oxoethyl)-1H-indol-3-yl]carbonyl}-5-fluoro-3H-spiro[2-benzofuran-1,4′-piperidin]-3-one] had a negative-log Ki (pKi) of 8.96. In turn, `CNCCNC(=O)Cn1cc(C(=O)N2CCC3(CC2)OCc2ccccc23)c2ccc(Cl)cc21` [Example 251, 2-[6-Chloro-3-(1′H,3H-spiro[2-benzofuran-1,4′-piperidin]-1′-ylcarbonyl)-1H-indol-1-yl]-N-[2-(methylamino)ethyl]acetamide] had a pKi of 8.68.

The compound `Cc1ncc(Cn2cc(C(=O)N3CCC4(CC3)OC(=O)c3cc(F)ccc34)c3ccc(Cl)cc32)c(N)n1` [Example 163, 1′-({1-[(4-Amino-2-methylpyrimidin-5-yl)methyl]-6-chloro-1H-indol-3-yl}carbonyl)-5-fluoro-3H-spiro[2-benzofuran-1,4′-piperidin]-3-one] showed a negative logarithm of the Ki (pKi) of 7.82. Regarding `CN(CCn1cc(C(=O)N2CCC3(CC2)OCc2ccccc23)c2ccc(Cl)cc21)S(C)(=O)=O` [Example 273, N-{2-[6-Chloro-3-(1′H,3H-spiro[2-benzofuran-1,4′-piperidin]-1′-ylcarbonyl)-1H-indol-1-yl]ethyl}-N-methylmethanesulfonamide], the negative-log Ki (pKi) was 8.96.

Consider `Cc1c(C(=O)N2CCC3(CC2)OCc2ccc(Cl)cc23)c2ccccc2n1Cc1ccccc1` [Example 40, 1′-[(1-benzyl-2-methyl-1H-indol-3-yl)carbonyl]-6-chloro-3H-spiro[2-benzofuran-1,4′-piperidine]], for which the negative logarithm of the Ki (pKi) was 8.54. Take `O=C(Cn1cc(C(=O)N2CCC3(CC2)OC(=O)c2cc(F)ccc23)c2ccc(Cl)cc21)c1cccc(F)c1` [Example 144, 1′-({6-Chloro-1-[2-(3-fluorophenyl)-2-oxoethyl]-1H-indol-3-yl}carbonyl)-5-fluoro-3H-spiro[2-benzofuran-1,4′-piperidin]-3-one]: the negative logarithm of the Ki (pKi) is 8.70. Turning to `COc1ccccc1Cn1c(C)c(C(=O)N2CCC3(CC2)OCc2ccccc23)c2ccccc21` [Example 54, 1′-{[1-(2-methoxybenzyl)-2-methyl-1H-indol-3-yl]carbonyl}-3H-spiro[2-benzofuran-1,4′-piperidine]], the negative logarithm of the Ki (pKi) was 8.60.

In the case of `O=C1OC2(CCN(C(=O)c3cn(Cc4cc(F)cc(F)c4)c4cc(Cl)ccc34)CC2)c2ccccc21` [Example 133, 1′-{[6-Chloro-1-(3,5-difluorobenzyl)-1H-indol-3-yl]carbonyl}-3H-spiro[2-benzofuran-1,4′-piperidin]-3-one], the negative logarithm of the Ki (pKi) was 9.05. Compound `O=C(c1cn(-c2cc(F)cc(F)c2)c2cc(Cl)ccc12)N1CCC2(CC1)OCc1ccccc12` [Example 222] had a pKi of 8.40. On to `CN1CCN(C(=O)c2[nH]c3cc(Cl)ccc3c2C(=O)N2CCC3(CC2)OC(=O)c2cc(F)ccc23)CC1` [Example 32, 1′-({6-chloro-2-[(4-methylpiperazin-1-yl)carbonyl]-1H-indol-3-yl}carbonyl)-5-fluoro-3H-spiro[2-benzofuran-1,4′-piperidin]-3-one], for which the pKi is 7.56. Compound `O=C(Cn1cc(C(=O)N2CCC3(CC2)OC(=O)c2ccccc23)c2ccc(Cl)cc21)c1cccc(F)c1` [Example 135, 1′-({6-Chloro-1-[2-(3-fluorophenyl)-2-oxoethyl]-1H-indol-3-yl}carbonyl)-3H-spiro[2-benzofuran-1,4′-piperidin]-3-one] gave a pKi of 8.74. In turn, `Cc1cc(Cn2cc(C(=O)N3CCC4(CC3)OC(=O)c3cc(F)ccc34)c3ccc(Cl)cc32)ccn1` [Example 161, 1′-({6-Chloro-1-[(2-methylpyridin-4-yl)methyl]-1H-indol-3-yl}carbonyl)-5-fluoro-3H-spiro[2-benzofuran-1,4′-piperidin]-3-one] gave a pKi of 8.66. Regarding `CCN(CC)C(=O)Cn1cc(C(=O)N2CCC3(CC2)CNc2ccccc23)c2ccc(Cl)cc21` [Example 99, 2-[6-Chloro-3-(1,2-dihydro-1′H-spiro[indole-3,4′-piperidin]-1′-ylcarbonyl)-1H-indol-1-yl]-N,N-diethylacetamide], the negative logarithm of the Ki (pKi) is 8.24.

Turning to `COc1ccc(Cn2c(C)c(C(=O)N3CCC4(CC3)OCc3ccccc34)c3ccccc32)cc1` [Example 55, 1′-{[1-(4-methoxybenzyl)-2-methyl-1H-indol-3-yl]carbonyl}-3H-spiro[2-benzofuran-1,4′-piperidine]], the negative-log Ki (pKi) is 8.10.

For `O=C(c1cn(Cc2cccc(F)c2)c2cc(Cl)ccc12)N1CCC2(CC1)CNc1ccccc12` [Example 94], the pKi was 8.39.

In the case of `CN(C)C(=O)Cn1cc(C(=O)N2CCC3(CC2)OCc2ccccc23)c2ccc(Cl)cc21` [Example 206, 2-[6-Chloro-3-(1′H,3H-spiro[2-benzofuran-1,4′-piperidin]-1′-ylcarbonyl)-1H-indol-1-yl]-N,N-dimethylacetamide], the pKi is 9.30. `NC(=O)c1[nH]c2cc(Cl)ccc2c1C(=O)N1CCC2(CC1)OC(=O)c1cc(F)ccc12` [Example 25, 6-chloro-3-[(5-fluoro-3-oxo-1′H,3H-spiro[2-benzofuran-1,4′-piperidin]-1′-yl)carbonyl]-1H-indole-2-carboxamide] gave a pKi of 7.69. Turning to `Cc1c(C(=O)N2CCC3(CC2)OCc2ccccc23)c2ccccc2n1C(=O)c1ccccc1` [Example 44, 1′-[(1-benzoyl-2-methyl-1H-indol-3-yl)carbonyl]-3H-spiro[2-benzofuran-1,4′-piperidine]], the pKi was 7.96. Take `N#CCC1(Cn2cc(C(=O)N3CCC4(CC3)OC(=O)c3cc(F)ccc34)c3ccc(Cl)cc32)CC1` [Example 191, [1-({6-Chloro-3-[(5-fluoro-3-oxo-1′H,3H-spiro[2-benzofuran-1,4′-piperidin]-1′-yl)carbonyl]-1H-indol-1-yl}methyl)cyclopropyl]acetonitrile]: the pKi was 8.55. Consider `O=C(c1c[nH]c2cc(Cl)ccc12)N1CCC2(CCc3ccccc32)CC1` [Example 6, 1′-[(6-chloro-1H-indol-3-yl)carbonyl]-2,3-dihydrospiro[indene-1,4′-piperidine]], for which the pKi was 7.71. For `O=C(Cn1cc(C(=O)N2CCC3(CC2)OCc2ccccc23)c2ccc(Cl)cc21)N1CCNCC1` [Example 211, 1′-{[6-Chloro-1-(2-oxo-2-piperazin-1-ylethyl)-1H-indol-3-yl]carbonyl}-3H-spiro[2-benzofuran-1,4′-piperidine]] the value was 9.10. `Cc1[nH]c2ccccc2c1C(=O)N1CCC2(CC1)OCc1ccccc12` [Example 43, 1′-[(2-methyl-1H-indol-3-yl)carbonyl]-3H-spiro[2-benzofuran-1,4′-piperidine]] had a pKi of 7.96. `O=C(c1cn(C(=O)c2cc(F)cc(F)c2)c2cc(Cl)ccc12)N1CCC2(CC1)OCc1ccccc12` [Example 216] showed a pKi of 8.46.
